Measured values as given in patent US11160790B2, “Method of inhibiting Cryptococcus growth using eltrombopag” (priority 2019, dated 2021).
Converted amounts (≈) assume the structure as drawn.

Columns and labels:
C. neoformans H99 [1] = assay: Melanization assay (L-DOPA); assay type: cell-based, Cryptococcus neoformans; settings: 0.03 mg/L (¼ MIC) or 0.06 mg/L (½ MIC); 1 mM L-DOPA, 30° C.
Procedure: (§1) Cryptococcus and Candida species were cultured in yeast extract-peptone-dextrose (YPD) medium (containing 1% yeast extract, 2% peptone, 2% glucose, and optionally 2% agar for preparation of an agar plate). Aspergillus, Fusarium, and Trichophyton species were cultured on potato dextrose agar (PDA) plate (containing 2% potato infusion, […], and 1.5% agar). A microdilution assay was performed to determine minimum inhibitory concentration (MIC), minimum fungicidal concentration (MFC), and fractional inhibitory concentration (FIC) index (FICI) using RPMI 1640 medium buffered with MOPS. Minimal medium (containing 15 mM glucose, 10 mM magnesium sulfate, 29.4 mM potassium dihydrogen phosphate, 13 mM glycine, and 3 μM thiamine hydrochloride; pH 5.5) was used for capsule size assay and melanization assay.
Melanin protects Cryptococcus from toxic free radicals produced by the host defense system, and thus melanin production is important for the pathogenicity of Cryptococcus. To study whether eltrombopag has an effect on melanin production in Cryptococcus, 5×10^4 C. neoformans H99 cells were cultured in minimal medium (abbreviated as MM) with or without 1 mM L-DOPA in the presence or absence of eltrombopag. The flasks containing the cultures were wrapped in foil to prevent L-DOPA auto-polymerization. […]

C. deuterogattii 8265 = assay: Disk diffusion susceptibility assay; assay type: cell-based, Cryptococcus deuterogattii; settings: 10 μg per disk; 25° C., 30° C. or 37° C., 48 hours
Procedure: A disk diffusion susceptibility assay was performed to further investigate the fungistatic activity of eltrombopag at different temperatures. Briefly, C. neoformans […] or C. deuterogattii 8265 was cultured overnight at 30° C., and 100 μL of the culture (at an OD600 of about 0.1) was spread on RPMI 1640 agar plates. Paper disks (with a diameter of 6 mm) were then placed on these agar plates, and either 10 μg eltrombopag (dissolved in 5 μL DMSO) or 5 μL DMSO (control) was added to each disk. The agar plates were incubated at 25° C., 30° C., or 37° C. for 48 hours and photographed.

C. deuterogattii R265 = assay: Capsule size assay (India ink); assay type: cell-based, Cryptococcus deuterogattii; settings: 0.06 mg/L, 37° C., 48 hours, versus no eltrombopag treatment
Procedure: as §1
Cryptococcus capsule, the structure attached to the outer surface of the cell wall and mainly composed of polysaccharides, can increase the resistance of Cryptococcus to host immune response (such as phagocytosis by macrophages) and harsh conditions (such as extreme acidity or alkalinity, high CO2 levels, or iron deprivation). To test whether eltrombopag affects capsule formation in Cryptococcus, C. neoformans H99 and C. deuterogattii R265 cells were cultured overnight in YPD media at 30° C. […] Statistical significance for the data sets was determined using a two-tailed t test.

C. neoformans H99 [2] = assay: XTT-reduction assay of biofilm metabolic activity; assay type: cell-based, Cryptococcus neoformans
Procedure: Cryptococcus biofilms, which are composed of Cryptococcus cells and extracellular matrix, enhance the tolerance of Cryptococcus to antifungal agents (such as amphotericin B) and host defense mechanisms. To assess whether eltrombopag impacts biofilm formation in Cryptococcus, an XTT-reduction assay was used to measure the metabolic activity of C. neoformans cells treated with eltrombopag at 37° C. Briefly, C. neoformans […] cells were cultured in YPD medium at 30° C. overnight. The cells were washed twice with phosphate buffered saline (PBS) and resuspended in RPMI 1640 medium with or without eltrombopag at the indicated concentrations. The cell suspension (0.0005 OD600/mL) was added to a 96-well polystyrene plate and incubated at 37° C. for 24 or 48 hours. […] After incubation, the cells were washed three times with PBS and subjected to XTT reduction assay to quantify formazan formation by measuring the light absorbance at 492 nm. The experiments were performed in triplicate, and the results were presented as mean±standard deviation. Statistical significance for the data sets was determined using a two-tailed t test.

most Candida species = assay: Microdilution assay, summary for Candida species; assay type: cell-based
Procedure: as §1, with “Minimal medium (containing 15 mM glucose, 10 mM magnesium sulfate, 29.4 mM potassium dihydrogen phosphate, 13 mM glycine, and 3 μM thiamine hydrochloride; pH 5.5) was used for capsule size assay and melanization assay.” left out
To investigate the inhibitory effects of eltrombopag on the growth of fungi, microdilution assays (based on the CLSI standards M27-A3 and M38-A2) were performed with multiple pathogenic yeasts and filamentous fungi including Cryptococcus, Candida, Aspergillus, Fusarium, and Trichophyton (TABLE 1). […] Thereafter, 3 μL of the fungal culture from each well of the 96-well plates was spotted onto eltrombopag-free YPD (for yeasts) or PDA (for filamentous fungi) agar plates, which were then incubated at 35° C. for 48 hours to examine colony formation Minimum fungicidal concentration (MFC) was determined to be the lowest drug concentration at which no colonies formed. […]

[3] = system: Cryptococcus neoformans T1; assay: Microdilution assay (CLSI M27-A3/M38-A2), MIC and MFC; assay type: cell-based
Procedure: as §1
(§2) To investigate the inhibitory effects of eltrombopag on the growth of fungi, microdilution assays (based on the CLSI standards M27-A3 and M38-A2) were performed with multiple pathogenic yeasts and filamentous fungi including Cryptococcus, Candida, Aspergillus, Fusarium, and Trichophyton (TABLE 1). Briefly, yeast or filamentous fungi strains at a final concentration of about 10^3 cfu/mL were inoculated in RPMI 1640 medium containing two-fold serially diluted eltrombopag (started at 64 mg/L). In addition, fungal cultures without eltrombopag were used as positive controls, while media without fungal cells and eltrombopag were used as negative controls. The 96-well plates loaded with the aforementioned cultures were incubated at 35° C. for 48 hours, and the growth of cells in each well was examined to determine the minimum inhibitory concentration (MIC) of eltrombopag, which was the lowest drug concentration at which there was no visible cell growth. Thereafter, 3 μL of the fungal culture from each well of the 96-well plates was spotted onto eltrombopag-free YPD (for yeasts) or PDA (for filamentous fungi) agar plates, which were then incubated at 35° C. for 48 hours to examine colony formation Minimum fungicidal concentration (MFC) was determined to be the lowest drug concentration at which no colonies formed. The assays were performed in triplicate.

[4] = system: Cryptococcus neoformans H99; assay: as above; assay type: cell-based; settings: 35° C.
Procedure: as §1, §2

Candida albicans SC5314 = assay: as above; assay type: cell-based; settings: 35° C.
Procedure: as §1, §2

[5] = system: Cryptococcus gattii WM276; assay: as above; assay type: cell-based; settings: 35° C.
Procedure: as §1, §2

[6] = system: Cryptococcus deuterogattii R272; assay: as above; assay type: cell-based; settings: 35° C.
Procedure: as §1, §2

[7] = system: Cryptococcus neoformans 89-610; assay: as above; assay type: cell-based; settings: 35° C.
Procedure: as §1, §2

In the case of `CC1=NN(c2ccc(C)c(C)c2)C(=O)/C1=N\Nc1cccc(-c2cccc(C(=O)O)c2)c1O` [eltrombopag], the melanin production (C. neoformans H99 [1]) is reported as “melanin production in C. neoformans reduced”, the inhibition zones (C. deuterogattii 8265) is reported as “significantly larger inhibition zones were observed at 37 °C” and the capsule size (C. deuterogattii R265) is reported as “capsule size significantly reduced”. For the same molecule, the “reduction of metabolic activity compared to the control group” value (C. neoformans H99 [2]; 0.125 mg/L, 37° C., 24 hours) was “more than 70%”, the “biofilm formation (metabolic activity, OD492)” value (C. neoformans H99 [2]; two-fold serially diluted from 4 to 0.015 mg/L, 48 hours) was “inhibited the formation of C. neoformans biofilms in a dose-dependent manner” and the MIC (most Candida species) was ≥ 64 mg/1. The MFC ([3]; T1, 35° C., 48 hours on drug-free agar) was > 64 µg/mL, the MIC ([3]; T1, 48 h, 35° C., 48 hours, azole-resistant strain) was 0.125 µg/mL (≈ 0.283 µM) and the MIC ([4]; 48 hours) was 0.125 µg/mL (≈ 0.283 µM). For the same molecule, the MFC ([4]; 48 hours on drug-free agar) was > 64 µg/mL, the MIC (Candida albicans SC5314; 48 hours) was > 64 µg/mL and the MFC (Candida albicans SC5314; 48 hours on drug-free agar) was > 64 µg/mL. For the same molecule, the MIC ([5]; 48 hours) was 0.125 µg/mL (≈ 0.283 µM), the MFC ([5]; 48 hours on drug-free agar) was > 64 µg/mL and the MIC ([6]; 48 hours) was 0.125 µg/mL (≈ 0.283 µM). For the same molecule, the MFC ([6]; 48 hours on drug-free agar) was > 64 µg/mL, the MIC ([7]; Cryptococcus neoformans, 89610, 48 h, 48 hours, azole-resistant strain) was 0.125 µg/mL (≈ 0.283 µM) and the MFC ([7]; Cryptococcus neoformans, 89610, 48 hours on drug-free agar) was > 64 µg/mL.
